# Values quoted from earlier work, collected in patent US6559138B1, “3-Desoxy-vitamin D3 analog esters” (Syntex (U.S.A.) LLC, priority 2001, dated 2003).
# Experiments:
# [1] = test system: steroid-induced bone loss; settings: calcitriol 0.5 to 1.0 micrograms/day plus calcium 1000 mg/day, with or without intranasal calcitonin 400 IU/day
# [2] = test system: women with postmenopausal osteoporosis
smiles,measurement,setting,value
"C=C1/C(=C\C=C2/CCC[C@]3(C)[C@@H]([C@H](C)CCCC(C)(C)O)CC[C@@H]23)C[C@@H](O)C[C@@H]1O [calcitriol, 1,25-dihydroxyvitamin D3]",effect on steroid-induced bone loss,[1],prevented steroid-induced bone loss
same,hypercalcaemia,[2]; at recommended dosages,infrequent and mild
same,lower rate of new vertebral fractures compared with patients receiving elemental calcium 1000 mg/day,"[2]; calcitriol 0.25 microgram twice daily, after 3 years of treatment, patients with mild to moderate disease",3 fold
same,tolerability,[2]; overall,well tolerated
